Results reported in PubChem BioAssay (NCI).
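Briefly, cells in 96-well plates were exposed to five compound concentrations for 48 h, and endpoints were estimated by linear interpolation. TGI: concentration producing complete growth inhibition.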

Experiments:
Test in all cases: NCI tumour cell line growth inhibition, 48 h
OVCAR-8 ovarian = tested on: OVCAR-8 ovarian
SNB-19 CNS = tested on: SNB-19 CNS
NCI/ADR-RES ovarian = tested on: NCI/ADR-RES ovarian
NCI-H522 lung = tested on: NCI-H522 lung
NCI-H460 lung = tested on: NCI-H460 lung
OVCAR-4 ovarian = tested on: OVCAR-4 ovarian
K-562 leukemia = tested on: K-562 leukemia
MDA-MB-231 breast = tested on: MDA-MB-231 breast
UACC-62 melanoma = tested on: UACC-62 melanoma
CAKI-1 renal = tested on: CAKI-1 renal
IGROV1 ovarian = tested on: IGROV1 ovarian
SR leukemia = tested on: SR leukemia
COLO 205 colon = tested on: COLO 205 colon
A549 NSCLC = tested on: A549 NSCLC
T-47D breast = tested on: T-47D breast
RXF 393 renal = tested on: RXF 393 renal
BT-549 breast = tested on: BT-549 breast
OVCAR-3 ovarian = tested on: OVCAR-3 ovarian
EKVX NSCLC = tested on: EKVX NSCLC
KM12 colon = tested on: KM12 colon
SF-539 CNS = tested on: SF-539 CNS
M14 melanoma = tested on: M14 melanoma
SK-MEL-2 melanoma = tested on: SK-MEL-2 melanoma
PC-3 prostate = tested on: PC-3 prostate
UO-31 renal = tested on: UO-31 renal
TK-10 renal = tested on: TK-10 renal
U251 CNS = tested on: U251 CNS
MALME-3M melanoma = tested on: MALME-3M melanoma
RPMI-8226 leukemia = tested on: RPMI-8226 leukemia
DU-145 prostate = tested on: DU-145 prostate
OVCAR-5 ovarian = tested on: OVCAR-5 ovarian
UACC-257 melanoma = tested on: UACC-257 melanoma
786-0 renal = tested on: 786-0 renal
HCT-116 colon = tested on: HCT-116 colon
NCI-H23 lung = tested on: NCI-H23 lung
SF-295 CNS = tested on: SF-295 CNS
HCT-15 colon = tested on: HCT-15 colon
HL-60(TB) leukemia = tested on: HL-60(TB) leukemia
SN12C renal = tested on: SN12C renal
SF-268 CNS = tested on: SF-268 CNS
SW-620 colon = tested on: SW-620 colon
SK-OV-3 ovarian = tested on: SK-OV-3 ovarian
MDA-N = tested on: MDA-N
MOLT-4 leukemia = tested on: MOLT-4 leukemia
MDA-MB-435 = tested on: MDA-MB-435
NCI-H226 lung = tested on: NCI-H226 lung
MCF7 breast = tested on: MCF7 breast
ACHN renal = tested on: ACHN renal
HT29 colon = tested on: HT29 colon
SK-MEL-5 melanoma = tested on: SK-MEL-5 melanoma
LOX IMVI melanoma = tested on: LOX IMVI melanoma
SK-MEL-28 melanoma = tested on: SK-MEL-28 melanoma
HCC-2998 colon = tested on: HCC-2998 colon
CCRF-CEM leukemia = tested on: CCRF-CEM leukemia
HOP-92 NSCLC = tested on: HOP-92 NSCLC
SNB-75 CNS = tested on: SNB-75 CNS
A498 renal = tested on: A498 renal
HOP-62 NSCLC = tested on: HOP-62 NSCLC

Oc1ccc(-c2nc3ccc(F)cc3s2)cc1
TGI (OVCAR-8 ovarian): 39.9 µM | TGI (SNB-19 CNS): 51.2 µM | TGI (NCI/ADR-RES ovarian): 52.8 µM | TGI (NCI-H522 lung): 26.9 µM | TGI (NCI-H460 lung): 59 µM | TGI (OVCAR-4 ovarian): 58.1 µM | TGI (K-562 leukemia): > 100 µM | TGI (MDA-MB-231 breast): 49 µM | TGI (UACC-62 melanoma): 34.8 µM | TGI (CAKI-1 renal): 37 µM | TGI (IGROV1 ovarian): 34.6 µM | TGI (SR leukemia): 53.4 µM | TGI (COLO 205 colon): 29.9 µM | TGI (A549 NSCLC): 43.1 µM | TGI (T-47D breast): 36 µM | TGI (RXF 393 renal): 68.2 µM | TGI (BT-549 breast): 37.4 µM | TGI (OVCAR-3 ovarian): 90.9 µM | TGI (EKVX NSCLC): 25.4 µM | TGI (KM12 colon): 33.8 µM | TGI (SF-539 CNS): 34 µM | TGI (M14 melanoma): 37.3 µM | TGI (SK-MEL-2 melanoma): 34.9 µM | TGI (PC-3 prostate): 44.5 µM | TGI (UO-31 renal): 30.1 µM | TGI (TK-10 renal): 34.1 µM | TGI (U251 CNS): 39.9 µM | TGI (MALME-3M melanoma): 38.5 µM | TGI (RPMI-8226 leukemia): 63.9 µM | TGI (DU-145 prostate): 30.3 µM | TGI (OVCAR-5 ovarian): 44.7 µM | TGI (UACC-257 melanoma): 37.2 µM | TGI (786-0 renal): 36 µM | TGI (HCT-116 colon): 32.9 µM | TGI (NCI-H23 lung): 48.3 µM | TGI (SF-295 CNS): 33.9 µM | TGI (HCT-15 colon): 35 µM | TGI (HL-60(TB) leukemia): 51.8 µM | TGI (SN12C renal): 40.9 µM | TGI (SF-268 CNS): 58.9 µM | TGI (SW-620 colon): > 100 µM | TGI (SK-OV-3 ovarian): 42.8 µM | TGI (MDA-N): 70.6 µM | TGI (MOLT-4 leukemia): > 100 µM | TGI (MDA-MB-435): 41.5 µM | TGI (NCI-H226 lung): 44.5 µM | TGI (MCF7 breast): 59.1 µM | TGI (ACHN renal): 38.6 µM | TGI (HT29 colon): 31.3 µM | TGI (SK-MEL-5 melanoma): 38 µM | TGI (LOX IMVI melanoma): 39.7 µM

Cc1nc2ccccc2c(=O)n1NC(=O)c1ccc(N)cc1
TGI (OVCAR-8 ovarian): > 100 µM | TGI (SNB-19 CNS): > 100 µM | TGI (NCI-H522 lung): > 100 µM | TGI (NCI-H460 lung): > 100 µM | TGI (SK-MEL-28 melanoma): > 100 µM | TGI (OVCAR-4 ovarian): > 100 µM | TGI (K-562 leukemia): > 100 µM | TGI (MDA-MB-231 breast): > 100 µM | TGI (UACC-62 melanoma): > 100 µM | TGI (IGROV1 ovarian): > 100 µM | TGI (SR leukemia): > 100 µM | TGI (COLO 205 colon): > 100 µM | TGI (A549 NSCLC): > 100 µM | TGI (T-47D breast): > 100 µM | TGI (HCC-2998 colon): > 100 µM | TGI (RXF 393 renal): > 100 µM | TGI (BT-549 breast): > 100 µM | TGI (OVCAR-3 ovarian): > 100 µM | TGI (EKVX NSCLC): > 100 µM | TGI (KM12 colon): > 100 µM | TGI (SF-539 CNS): > 100 µM | TGI (M14 melanoma): > 100 µM | TGI (PC-3 prostate): > 100 µM | TGI (UO-31 renal): > 100 µM | TGI (TK-10 renal): > 100 µM | TGI (U251 CNS): > 100 µM | TGI (CCRF-CEM leukemia): > 100 µM | TGI (MALME-3M melanoma): > 100 µM | TGI (RPMI-8226 leukemia): > 100 µM | TGI (DU-145 prostate): > 100 µM | TGI (OVCAR-5 ovarian): > 100 µM | TGI (UACC-257 melanoma): > 100 µM | TGI (786-0 renal): > 100 µM | TGI (HCT-116 colon): > 100 µM | TGI (NCI-H23 lung): > 100 µM | TGI (SF-295 CNS): > 100 µM | TGI (HOP-92 NSCLC): > 100 µM | TGI (HL-60(TB) leukemia): > 100 µM | TGI (SNB-75 CNS): > 100 µM | TGI (SN12C renal): > 100 µM | TGI (SF-268 CNS): > 100 µM | TGI (A498 renal): > 100 µM | TGI (SW-620 colon): > 100 µM | TGI (SK-OV-3 ovarian): > 100 µM | TGI (MDA-N): > 100 µM | TGI (MOLT-4 leukemia): > 100 µM | TGI (MDA-MB-435): > 100 µM | TGI (HOP-62 NSCLC): > 100 µM | TGI (NCI-H226 lung): > 100 µM | TGI (MCF7 breast): > 100 µM | TGI (ACHN renal): > 100 µM | TGI (HT29 colon): > 100 µM | TGI (SK-MEL-5 melanoma): > 100 µM | TGI (LOX IMVI melanoma): > 100 µM
